What all share (test): ≥ marks a high value that may be exact or a test limit, other limits are often not marked, values filed in µg/mL are converted to µM
The subject of test [1] is Streptococcus agalactiae.
Test [2] deals with Streptococcus thermophilus YM-C.
Test [3] has as its system Escherichia coli 078.
In test [4] the test system is Staphylococcus aureus ATCC 25923.
The test system of test [5] is Salmonella enterica subsp. enterica serovar Typhimurium C77-31.
Test [6] relates to Escherichia coli UB1005.
The test system of test [7] is Salmonella enterica subsp. enterica serovar Pullorum ATCC 7913.
Test [8] concerns Staphylococcus aureus ATCC 29213.
Test [9] deals with Streptococcus agalactiae CICC 10465.
For test [10], the system named is Escherichia coli ATCC 25922.
Test [11] has as its system Lacticaseibacillus rhamnosus 7469.
Test [12] concerns Salmonella enterica subsp. enterica serovar Typhimurium ATCC 14028.
Test [13] concerns Staphylococcus epidermidis ATCC 12228.
For test [14], the system named is Pseudomonas aeruginosa ATCC 27853.
In test [15] the test system is Micrococcus luteus A270.
Test [16] concerns Escherichia coli SBS 363.
In test [17] the test system is Bacillus subtilis ATCC 6633.
Test [18] relates to Enterobacter cloacae beta-12.
Test [19] has as its system Candida tropicalis IOC 4560.
The test system of test [20] is Serratia marcescens ATCC 4112.
The subject of test [21] is Candida albicans MDM8.
For test [22], the system named is Bacillus megaterium ATCC 10778.
For test [23], the system named is Pseudomonas aeruginosa PAO1.
Test [24] concerns Escherichia coli MG1655.
Test [25] relates to Candida albicans.
The test system of test [26] is Pseudomonas aeruginosa H1001.

This is an account of results in DBAASP.

SMILES strings stand for the structures. In brackets after ≈: the same amount, converted by molar mass.

By MIC is commonly meant the least concentration at which growth counts as inhibited. Higher therefore signals a less susceptible organism. For `CC[C@H](C)[C@H](NC(=O)[C@H](CC(C)C)NC(=O)[C@@H](NC(=O)[C@@H](N)CC(=O)O)[C@@H](C)CC)C(=O)N[C@H](C(=O)N[C@H](C(=O)NCC(=O)NCC(=O)N[C@@H](CCCCN)C(=O)N[C@@H](CC(=O)O)C(=O)N[C@@H](CCCN=C(N)N)C(=O)N[C@@H](CCCCN)C(=O)N[C@@H](CCCCN)C(=O)N[C@@H](CCCN=C(N)N)C(=O)N[C@@H](CCCN=C(N)N)C(=O)N[C@@H](CCCN=C(N)N)C(N)=O)C(C)C)[C@@H](C)CC` [DILIIVGGKDRKKRRR], the MIC is 8 µM (≈ 15.4 µg/mL) in test [1]; ≥ 64 µM in test [2]; ≥ 32 µM in test [3]; > 64 µM in test [4]; ≥ 64 µM in [5]; ≥ 32 µM in [6]. The MIC in test [7] is 8 µM (≈ 15.4 µg/mL); in test [8], 4 µM (≈ 7.69 µg/mL); in [9] it was 4 µM (≈ 7.69 µg/mL); in test [10], 8 µM (≈ 15.4 µg/mL); in [11], ≥ 64 µM; in test [12] it was > 64 µM. For the same compound, the MIC in [13] was 4 µM (≈ 7.69 µg/mL); in test [14] it was > 64 µM.

For `CC[C@H](C)[C@H](NC(=O)[C@H](CC(C)C)NC(=O)[C@@H](NC(=O)[C@@H](N)CC(=O)O)[C@@H](C)CC)C(=O)N[C@H](C(=O)N[C@H](C(=O)NCC(=O)NCC(=O)N[C@@H](CCCCN)C(=O)N[C@@H](CCCN=C(N)N)C(=O)N[C@@H](CCCN=C(N)N)C(=O)N[C@@H](CCCN=C(N)N)C(N)=O)C(C)C)[C@@H](C)CC` [DILIIVGGKRRR], the MIC in [1] is 5.66 µM (≈ 7.89 µg/mL); in test [2], ≥ 64 µM; in [3], ≥ 64 µM; in test [4], > 64 µM; in [5], ≥ 64 µM; in test [6], ≥ 64 µM. Also, the MIC in test [7] is ≥ 64 µM; in test [8] it was > 64 µM; in test [9], 8 µM (≈ 11.2 µg/mL); in test [10], > 64 µM; in test [11], ≥ 64 µM; in [12], > 64 µM. Also, the MIC in [13] and in test [14] was > 64 µM in each case.

With `CC[C@H](C)[C@H](NC(=O)[C@H](CC(C)C)NC(=O)[C@@H](NC(=O)[C@@H](N)CC(=O)O)[C@@H](C)CC)C(=O)N[C@H](C(=O)N[C@H](C(=O)NCC(=O)NCC(=O)N[C@@H](CCCN=C(N)N)C(=O)N[C@@H](CCCN=C(N)N)C(=O)N[C@@H](CCCN=C(N)N)C(=O)N[C@@H](CCCN=C(N)N)C(=O)N[C@@H](CCCN=C(N)N)C(=O)N[C@@H](CCCN=C(N)N)C(=O)N[C@@H](CCCN=C(N)N)C(=O)N[C@@H](CCCN=C(N)N)C(N)=O)C(C)C)[C@@H](C)CC` [DILIIVGGRRRRRRRR], the MIC in test [1] was 5.66 µM (≈ 11.6 µg/mL); in test [2] it was ≥ 64 µM; in test [3] it was ≥ 32 µM; in test [4], 4 µM (≈ 8.19 µg/mL); in test [5], ≥ 64 µM; in test [6], 8 µM (≈ 16.4 µg/mL). Also, the MIC in test [7] was 8 µM (≈ 16.4 µg/mL); in [8], 2 µM (≈ 4.1 µg/mL); in test [9], 4 µM (≈ 8.19 µg/mL); in [10] it was 4 µM (≈ 8.19 µg/mL); in test [11], ≥ 64 µM; in test [12] it was > 64 µM. Further, the MIC in test [13] and in [14] was 8 µM (≈ 16.4 µg/mL) throughout.

In the case of `CC(C)C[C@H](NC(=O)[C@H](C)NC(=O)CNC(=O)[C@H](CC(C)C)NC(=O)[C@@H](N)Cc1ccccc1)C(=O)N[C@@H](Cc1c[nH]c2ccccc12)C(=O)N[C@@H](CC(N)=O)C(=O)N1CCC[C@H]1C(=O)N[C@@H](C)C(=O)N[C@@H](CCCCN)C(=O)N[C@@H](CO)C(=O)N[C@H](C(=O)N[C@@H](Cc1ccccc1)C(N)=O)C(C)C` [FLGALWNPAKSVF], the MIC in [15] is 25 µM (≈ 36.2 µg/mL); in [16], ≥ 50 µM; in test [17], ≥ 50 µM; in test [8], > 50 µM; in [18], ≥ 50 µM; in test [19], ≥ 50 µM. Also, the MIC is 12.5 µM (≈ 18.1 µg/mL) in [20], ≥ 50 µM in test [21], > 50 µM in test [14] and ≥ 50 µM in test [22].

Consider `CC(C)C[C@H](NC(=O)[C@H](C)NC(=O)[C@H](CCCCN)NC(=O)[C@H](CC(C)C)NC(=O)[C@@H](N)Cc1ccccc1)C(=O)N[C@@H](Cc1c[nH]c2ccccc12)C(=O)N[C@@H](CCCCN)C(=O)N[C@H](C(=O)N[C@@H](C)C(=O)N[C@@H](CCCCN)C(=O)N[C@@H](CO)C(=O)N[C@H](C(=O)N[C@@H](Cc1ccccc1)C(N)=O)C(C)C)C(C)C` [FLKALWKVAKSVF], for which the MIC in test [15] came out at 0.4 µM (≈ 0.614 µg/mL); in test [16], 1.6 µM (≈ 2.46 µg/mL); in test [8], 0.8 µM (≈ 1.23 µg/mL); in test [18], 3.1 µM (≈ 4.76 µg/mL); in test [19], 0.8 µM (≈ 1.23 µg/mL); in test [20] it was 0.1 µM (≈ 0.154 µg/mL). Further, the MIC in test [21] turned out to be 1.6 µM (≈ 2.46 µg/mL); in test [13], 3.1 µM (≈ 4.76 µg/mL); in [22], 0.4 µM (≈ 0.614 µg/mL).

Take `CSCC[C@H](NC(=O)[C@@H](NC(=O)[C@H](CCCCN)NC(=O)[C@H](Cc1cnc[nH]1)NC(=O)[C@H](CC(C)C)NC(=O)CN)C(C)C)C(=O)N[C@@H](CCCN=C(N)N)C(=O)N[C@@H](CCC(=O)O)C(=O)N[C@H](C(=O)N[C@@H](CC(C)C)C(=O)NCC(=O)N[C@@H](Cc1ccc(O)cc1)C(N)=O)C(C)C` [GLHKVMREVLGY]: the MIC in test [23] was > 128 µM; in test [4], > 128 µM; in [24], ≥ 128 µM; in test [25], > 128 µM.

As to `CSCC[C@H](NC(=O)[C@@H](NC(=O)[C@H](CCCCN)NC(=O)[C@H](Cc1cnc[nH]1)NC(=O)[C@H](CC(C)C)NC(=O)CN)C(C)C)C(=O)N[C@@H](CCCN=C(N)N)C(=O)N[C@@H](CCCCN)C(=O)N[C@H](C(=O)N[C@@H](CC(C)C)C(=O)NCC(=O)N[C@@H](Cc1ccc(O)cc1)C(=O)N[C@@H](CC(C)C)C(=O)N[C@@H](CCCN=C(N)N)C(=O)N[C@@H](CC(N)=O)C(=O)N[C@H](C(=O)N[C@@H](Cc1ccc(O)cc1)C(=O)N[C@@H](CCCCN)C(N)=O)C(C)C)C(C)C` [GLHKVMRKVLGYLRNVYK], the MIC came to 8 µM (≈ 17.4 µg/mL) in test [23], 8 µM (≈ 17.4 µg/mL) in [4], 1 µM (≈ 2.17 µg/mL) in test [24] and 8 µM (≈ 17.4 µg/mL) in test [25].

Take `CSCC[C@H](NC(=O)[C@@H](NC(=O)[C@@H](N)CCCCN)C(C)C)C(=O)N[C@@H](CCCN=C(N)N)C(=O)N[C@@H](CCC(=O)O)C(=O)N[C@H](C(=O)N[C@@H](CC(C)C)C(=O)NCC(=O)N[C@@H](Cc1ccc(O)cc1)C(=O)N[C@@H](CCC(=O)O)C(=O)N[C@@H](CCCN=C(N)N)C(=O)N[C@@H](CC(N)=O)C(=O)N[C@@H](CO)C(=O)N[C@@H](Cc1ccc(O)cc1)C(=O)N[C@@H](CCCCN)C(N)=O)C(C)C` [KVMREVLGYERNSYK]: the MIC in test [23] is > 128 µM; in [4], > 128 µM; in test [24], ≥ 128 µM; in [25], > 128 µM.

Compound `CC[C@H](C)[C@H](NC(=O)[C@H](CCCN=C(N)N)NC(=O)[C@H](CCCN=C(N)N)NC(=O)[C@@H]1CCCN1C(=O)[C@H](Cc1ccc(O)cc1)NC(=O)[C@H](CCCN=C(N)N)NC(=O)[C@@H]1CCCN1C(=O)[C@H](CCCN=C(N)N)NC(=O)[C@@H]1CCCN1C(=O)[C@H](CC(C)C)NC(=O)[C@H](Cc1ccc(O)cc1)NC(=O)[C@@H]1CCCN1C(=O)[C@@H]1CCCN1C(=O)[C@H](CCCCN)NC(=O)[C@H](CC(=O)O)NC(=O)[C@@H](N)C(C)C)C(=O)N[C@@H](Cc1ccc(O)cc1)C(=O)N[C@@H](CC(N)=O)C(=O)N[C@@H](CCCN=C(N)N)C(=O)NCC(=O)O` [VDKPPYLPRPRYPRRIYNRG] displayed an MIC in test [26] of 0.0597 µM (≈ 0.15 µg/mL).
